Measured values from patent US5272147A, “Pyrazolopyrimidinone antianginal agents” (Pfizer Inc., priority 1991, dated 1993).
Blank lines part the entries; values can stand above or below the molecule they belong to.

How the values were obtained:
Format in all cases: biochemical
[1] = target: T1, Ca/CAM-independent cGMP PDE (Oryctolagus cuniculus, UniProt G1SX67); test: Phosphodiesterase activity: inhibition of calcium/calmodulin (Ca/CAM)-independent cGMP PDE from rabbit platelets; settings: in vitro; Ca/CAM-independent cGMP PDE from rabbit platelets
T1 construct: The PDE enzymes are isolated from rabbit platelets and rat kidney; from tissue; host or cells: rabbit platelets
Protocol: (§1) Compound affinities for cGMP and cAMP PDEs are assessed by determination of their IC50 value (the concentration of inhibitor required for 50% inhibition of enzyme activity). The PDE enzymes are isolated from rabbit platelets and rat kidney, essentially by the method of W. J. Thompson et al. (Biochem., 1971, 10, 311). The calcium/calmodulin (Ca/CAM)-independentcGMP PDE and the cGMP-inhibited cAMP PDE enzymes are obtained from rabbit platelets whilst, of the four major PDE enzymes of the rat kidney, the Ca/CAM-dependent cGMP PDE (fraction I) is isolated. Assays are performed using a modification of the "batch" method of W. J. Thompson and M. M. Appleman (Biochem., 1979, 18, 5228).

cGMP-inhibited cAMP PDE = target: T2, cGMP-inhibited cAMP PDE (Oryctolagus cuniculus, UniProt G1ST54); test: Phosphodiesterase activity: inhibition of cGMP-inhibited cAMP PDE from rabbit platelets; settings: in vitro
T2 construct: The PDE enzymes are isolated from rabbit platelets and rat kidney; from tissue; host or cells: rabbit platelets
T2 sequence (G1ST54 1-1128): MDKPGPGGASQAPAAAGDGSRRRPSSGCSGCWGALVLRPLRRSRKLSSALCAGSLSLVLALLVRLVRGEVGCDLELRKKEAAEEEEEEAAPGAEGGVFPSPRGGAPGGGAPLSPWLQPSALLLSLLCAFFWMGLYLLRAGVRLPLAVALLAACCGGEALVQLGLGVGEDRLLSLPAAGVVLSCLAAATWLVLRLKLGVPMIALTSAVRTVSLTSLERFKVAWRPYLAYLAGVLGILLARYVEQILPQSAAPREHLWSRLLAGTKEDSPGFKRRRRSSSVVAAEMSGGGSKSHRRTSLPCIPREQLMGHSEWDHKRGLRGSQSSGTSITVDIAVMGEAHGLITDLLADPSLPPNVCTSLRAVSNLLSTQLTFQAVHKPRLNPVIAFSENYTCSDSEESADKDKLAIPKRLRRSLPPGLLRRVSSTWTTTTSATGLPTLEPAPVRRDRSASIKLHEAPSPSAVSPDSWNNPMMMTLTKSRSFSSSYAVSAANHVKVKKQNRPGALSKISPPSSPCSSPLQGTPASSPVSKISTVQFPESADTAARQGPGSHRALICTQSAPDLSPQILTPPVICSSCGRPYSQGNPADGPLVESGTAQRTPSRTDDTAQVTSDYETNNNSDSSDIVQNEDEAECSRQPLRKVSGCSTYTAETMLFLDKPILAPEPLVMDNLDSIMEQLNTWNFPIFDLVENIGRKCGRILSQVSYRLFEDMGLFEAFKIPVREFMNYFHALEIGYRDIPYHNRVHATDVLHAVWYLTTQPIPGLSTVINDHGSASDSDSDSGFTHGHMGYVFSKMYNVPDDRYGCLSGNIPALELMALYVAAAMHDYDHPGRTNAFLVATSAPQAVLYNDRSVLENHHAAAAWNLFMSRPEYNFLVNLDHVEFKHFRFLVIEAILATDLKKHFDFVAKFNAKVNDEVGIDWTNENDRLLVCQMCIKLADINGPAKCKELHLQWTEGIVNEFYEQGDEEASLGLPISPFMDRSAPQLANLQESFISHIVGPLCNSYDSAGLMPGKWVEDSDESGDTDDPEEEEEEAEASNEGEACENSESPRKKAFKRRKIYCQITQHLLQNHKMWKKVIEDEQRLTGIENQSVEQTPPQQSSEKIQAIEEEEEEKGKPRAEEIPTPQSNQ
Protocol: as §1

[2] = system: Ca/CAM-independent cGMP PDE; test: Phosphodiesterase activity: inhibition of calcium/calmodulin (Ca/CAM)-independent cGMP PDE from rabbit platelets; settings: between Ca/CAM-independent cGMP PDE and cGMP-inhibited cAMP PDE (IC50 cAMP / IC50 cGMP)
Protocol: as §1

SMILES: CCCc1nn(C)c2c(=O)[nH]c(-c3cc(C(=O)N4CCN(C)CC4)ccc3OCC)nc12 [Example 30, 5-[2-Ethoxy-5-(4-methylpiperazinylcarbonyl)phenyl]-1-methyl-3-n-propyl-1,6-dihydro-7H-pyrazolo[4,3-d]-pyrimidin-7-one]
IC50 [1]: 0.0014 µM
IC50 (cGMP-inhibited cAMP PDE): 58 µM

SMILES: CCCc1nn(C)c2c(=O)[nH]c(-c3cc(C(=O)O)ccc3OCC)nc12 [Example 29, 4-Ethoxy-3-(-1-methyl-3-n-propyl-1,6-dihydro-7H-pyrazolo[4,3-d]-pyrimidin-5-yl)benzoic acid]
SELECTIVITY RATIO [2]: 15,272
IC50 [1]: 0.0055 µM
IC50 (cGMP-inhibited cAMP PDE): 84 µM

SMILES: CCCc1nn(C)c2c(=O)[nH]c(-c3cc(/C=C/C(=O)N(C)C)ccc3OCC)nc12 [Example 25, (E)-4-Ethoxy-3(1-methyl-3-n-propyl-1,6-dihydro-7H-pyrazolo[4,3-d]-pyrimidin-5-yl)cinnamic acid dimethylamide]
SELECTIVITY RATIO [2]: 24,705
IC50 [1]: 0.0034 µM
IC50 (cGMP-inhibited cAMP PDE): 84 µM

SMILES: CCCOc1ccc(/C=C/C(=O)O)cc1-c1nc2c(CCC)nn(C)c2c(=O)[nH]1 [Example 20, (E)-3-(1-Methyl-7-oxo-3-n-propyl-1,6-dihydro-7H-pyrazolo[4,3-d]-pyrimidin-5-yl)-4-n-propoxycinnamic acid]
SELECTIVITY RATIO [2]: 15,945
IC50 [1]: 0.0037 µM
IC50 (cGMP-inhibited cAMP PDE): 59 µM

SMILES: CCCOc1ccc(COCCO)cc1-c1nc2c(CCC)nn(C)c2c(=O)[nH]1 [Example 39, 5-[5-(2-Hydroxyethoxymethyl)-2-n-propoxyphenyl]-1-methyl-3-n-propyl-1,6-dihydro-7H-pyrazolo[4,3-d]-pyrimidin-7-one]
SELECTIVITY RATIO [2]: 10,188
IC50 [1]: 0.0053 µM
IC50 (cGMP-inhibited cAMP PDE): 54 µM

SMILES: CCCOc1ccc(C(=O)CN2CCN(C)CC2)cc1-c1nc2c(CCC)nn(C)c2c(=O)[nH]1 [Example 15, 1-Methyl-5-[5-(4-methyl-1-piperazinylacetyl)-2n-propoxyphenyl]-3-n-propyl-1,6-dihydro-7H-pyrazolo [4,3-d]pyrimidin-7-one]
SELECTIVITY RATIO [2]: 22,058
IC50 [1]: 0.0034 µM
IC50 (cGMP-inhibited cAMP PDE): 75 µM

SMILES: CCCc1nn(C)c2c(=O)[nH]c(-c3cc(C(O)CN4CCOCC4)ccc3OCC)nc12 (centres unmarked) [Example 11]
SELECTIVITY RATIO [2]: 11,632
IC50 [1]: 0.0049 µM
IC50 (cGMP-inhibited cAMP PDE): 57 µM

Further molecules by falling IC50 [1], results first:

IC50 [1]: 0.0037 µM
IC50 (cGMP-inhibited cAMP PDE): 53 µM
SMILES: CCCOc1ccc(C(O)CN2CCOCC2)cc1-c1nc2c(CCC)nn(C)c2c(=O)[nH]1 (centres unmarked) [Example 16, 5-[5-(1-Hyroxy-2-morpholinoethyl)-2-n-propoxyphenyl]-1-methyl-3-n-propyl-1,6-dihydro-7H-pyrazolo[4,3-d]pyrimidin-7-one]
SELECTIVITY RATIO [2]: 14,324

IC50 [1]: 0.0034 µM
IC50 (cGMP-inhibited cAMP PDE): 56 µM
SMILES: CCCc1nn(C)c2c(=O)[nH]c(-c3cc(-n4ccnc4)ccc3OCC)nc12 [Example 31, 5-[2-Ethoxy-5-(1-imidazolyl)phenyl]-1-methyl-3-n-propyl-1,6-dihydro-7H-pyrazolo[4,3-d]-pyrimidin-7-one]
SELECTIVITY RATIO [2]: 16,470

IC50 [1]: 0.0022 µM
IC50 (cGMP-inhibited cAMP PDE): 86 µM
SMILES: CCCc1nn(C)c2c(=O)[nH]c(-c3cc(C(=O)CN4CCN(C(C)=O)CC4)ccc3OCC)nc12 [Example 3, 5-[5-(4-acetyl-1-piperazinyl)acetyl-2-ethoxyphenyl]-1-methyl-3-n-propyl-1,6-dihydro-7H-pyrazolo[4,3-d]pyrimidin-7-one]
SELECTIVITY RATIO [2]: 39,090

IC50 [1]: 0.0018 µM
IC50 (cGMP-inhibited cAMP PDE): 63 µM
SMILES: CCCc1nn(C)c2c(=O)[nH]c(-c3cc(C(=O)CN4CCOCC4)ccc3OCC)nc12 [Example 4, 5-(2-ethoxy-5-morpholinoacetylphenyl)-1-methyl-3-n-propyl-1,6dihydro-7H-pyrazolo[4,3-d]pyrimidin-7-one]
SELECTIVITY RATIO [2]: 35,000

IC50 [1]: 0.0014 µM
IC50 (cGMP-inhibited cAMP PDE): 38 µM
SMILES: CCCc1nn(C)c2c(=O)[nH]c(-c3cc(-c4nccn4C)ccc3OCC)nc12 [Example 32, 5-[2-ethoxy-5-(1-methyl-2-imidazolyl)phenyl]-1methyl-3-n-propyl-1,6-dihydro-7H-pyrazolo[4,3-d]pyrimidin-7-one]
SELECTIVITY RATIO [2]: 27,142

IC50 [1]: 0.001 µM
IC50 (cGMP-inhibited cAMP PDE): 57 µM
SMILES: CCCOc1ccc(C(=O)CN2CCOCC2)cc1-c1nc2c(CCC)nn(C)c2c(=O)[nH]1 [Example 14, 1-Methyl-5-(5-morpholinoacetyl-2-n-propoxyphenyl)-3-n-propyl-1,6-dihydro-7H-pyrazolo[4,3-d]pyrimidin-7-one]
SELECTIVITY RATIO [2]: 57,000
